Laboratory results reported in the supplement of paper PMC10307832.

Columns and labels:
Assay in all cases: relative viability (nuclei count vs DMSO), 5 days (fraction); higher = more cells survive
[1] = compound: C[As](C)SC[C@H](NC(=O)CC[C@H](N)C(=O)O)C(=O)NCC(=O)O [Darinaparsin] + CC(=O)c1c(C)c2cnc(Nc3ccc(N4CCNCC4)cn3)nc2n(C2CCCC2)c1=O [Palbociclib] (partner 0.5 µM)
Procedure, shortened: (§1)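 After 5 days of treatment, lung cancer cells in 1536-well plates were fixed and stained in a single step (final 0.05% Triton X-100, 1% formaldehyde, 1 ug/ml Hoechst) and their nuclei counted on 4× images. Treatment had been applied by pin tool the day after seeding as one drug alone or as a fixed anchor-drug dose with five library-drug doses (not always all listed) in √10 steps. Relative viability is the nuclei count of treated wells divided by that of vehicle wells, and values are medians of duplicate plates.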

AZ628 + Tozasertib = compound: CC1=C(C=C(C=C1)NC(=O)C2=CC(=CC=C2)C(C)(C)C#N)NC3=CC4=C(C=C3)N=CN(C4=O)C [AZ628] + Cc1cc(Nc2cc(N3CCN(C)CC3)nc(Sc3ccc(NC(=O)C4CC4)cc3)n2)n[nH]1 [Tozasertib] (partner 0.1 µM)
Procedure, shortened: as §1

[2] = compound: C[As](C)SC[C@H](NC(=O)CC[C@H](N)C(=O)O)C(=O)NCC(=O)O [Darinaparsin] + Nc1ncn([C@H]2C[C@H](O)[C@@H](CO)O2)c(=O)n1 [Decitabine] (partner 2 µM)
Procedure, shortened: as §1

Darinaparsin + Alpelisib = compound: C[As](C)SC[C@H](NC(=O)CC[C@H](N)C(=O)O)C(=O)NCC(=O)O [Darinaparsin] + Cc1nc(NC(=O)N2CCC[C@H]2C(N)=O)sc1-c1ccnc(C(C)(C)C(F)(F)F)c1 [Alpelisib] (partner 2 µM)
Procedure, shortened: as §1

## NCI-H2126
[1]; first compound 0.08 µM
  relative viability: 0.371
[1]; first compound 0.8 µM
  relative viability: 0.344
[1]; first compound 2.53 µM
  relative viability: 0.352
[1]; first compound 8 µM
  relative viability: 0.334
AZ628 + Tozasertib; first compound 0.08 µM
  relative viability: 0.899
AZ628 + Tozasertib; first compound 0.253 µM
  relative viability: 0.815
AZ628 + Tozasertib; first compound 0.8 µM
  relative viability: 0.951
AZ628 + Tozasertib; first compound 2.53 µM
  relative viability: 0.859
AZ628 + Tozasertib; first compound 8 µM
  relative viability: 0.866
[2]; first compound 0.08 µM
  relative viability: 0.597
[2]; first compound 0.8 µM
  relative viability: 0.578
[2]; first compound 2.53 µM
  relative viability: 0.575
[2]; first compound 8 µM
  relative viability: 0.635
Darinaparsin + Alpelisib; first compound 0.08 µM
  relative viability: 0.803
Darinaparsin + Alpelisib; first compound 0.8 µM
  relative viability: 0.737
Darinaparsin + Alpelisib; first compound 2.53 µM
  relative viability: 0.616
Darinaparsin + Alpelisib; first compound 8 µM
  relative viability: 0.804

## LK-2
[1]; first compound 0.08 µM
  relative viability: 1
[1]; first compound 2.53 µM
  relative viability: 0.815
[1]; first compound 8 µM
  relative viability: 0.989
AZ628 + Tozasertib; first compound 0.08 µM
  relative viability: 0.166
AZ628 + Tozasertib; first compound 0.253 µM
  relative viability: 0.167
AZ628 + Tozasertib; first compound 0.8 µM
  relative viability: 0.17
AZ628 + Tozasertib; first compound 2.53 µM
  relative viability: 0.173
AZ628 + Tozasertib; first compound 8 µM
  relative viability: 0.165
[2]; first compound 0.08 µM
  relative viability: 0.281
[2]; first compound 0.8 µM
  relative viability: 0.235
[2]; first compound 2.53 µM
  relative viability: 0.277
[2]; first compound 8 µM
  relative viability: 0.333
Darinaparsin + Alpelisib; first compound 0.08 µM
  relative viability: 1.37
Darinaparsin + Alpelisib; first compound 2.53 µM
  relative viability: 1.31
Darinaparsin + Alpelisib; first compound 8 µM
  relative viability: 1.42

## SK-MES-1
[1]; first compound 0.08 µM
  relative viability: 0.308
[1]; first compound 0.8 µM
  relative viability: 0.303
[1]; first compound 2.53 µM
  relative viability: 0.298
[1]; first compound 8 µM
  relative viability: 0.314
AZ628 + Tozasertib; first compound 0.08 µM
  relative viability: 0.952
AZ628 + Tozasertib; first compound 0.253 µM
  relative viability: 0.875
AZ628 + Tozasertib; first compound 0.8 µM
  relative viability: 1.01
AZ628 + Tozasertib; first compound 2.53 µM
  relative viability: 0.959
AZ628 + Tozasertib; first compound 8 µM
  relative viability: 0.443
[2]; first compound 0.08 µM
  relative viability: 0.358
[2]; first compound 0.8 µM
  relative viability: 0.357
[2]; first compound 2.53 µM
  relative viability: 0.34
[2]; first compound 8 µM
  relative viability: 0.388
Darinaparsin + Alpelisib; first compound 0.08 µM
  relative viability: 1.01
Darinaparsin + Alpelisib; first compound 0.8 µM
  relative viability: 0.909
Darinaparsin + Alpelisib; first compound 2.53 µM
  relative viability: 0.63
Darinaparsin + Alpelisib; first compound 8 µM
  relative viability: 0.993

## NCI-H1944
[1]; first compound 0.08 µM
  relative viability: 0.314
[1]; first compound 0.8 µM
  relative viability: 0.339
[1]; first compound 2.53 µM
  relative viability: 0.31
[1]; first compound 8 µM
  relative viability: 0.404
AZ628 + Tozasertib; first compound 0.08 µM
  relative viability: 0.26
AZ628 + Tozasertib; first compound 0.253 µM
  relative viability: 0.227
AZ628 + Tozasertib; first compound 0.8 µM
  relative viability: 0.235
AZ628 + Tozasertib; first compound 2.53 µM
  relative viability: 0.249
AZ628 + Tozasertib; first compound 8 µM
  relative viability: 0.209
[2]; first compound 0.08 µM
  relative viability: 0.437
[2]; first compound 0.8 µM
  relative viability: 0.466
[2]; first compound 2.53 µM
  relative viability: 0.452
[2]; first compound 8 µM
  relative viability: 0.442
Darinaparsin + Alpelisib; first compound 0.08 µM
  relative viability: 0.946
Darinaparsin + Alpelisib; first compound 0.8 µM
  relative viability: 0.912
Darinaparsin + Alpelisib; first compound 2.53 µM
  relative viability: 0.823
Darinaparsin + Alpelisib; first compound 8 µM
  relative viability: 0.905

## SW 1573
[1]; first compound 0.08 µM
  relative viability: 0.412
[1]; first compound 0.8 µM
  relative viability: 0.353
[1]; first compound 2.53 µM
  relative viability: 0.355
[1]; first compound 8 µM
  relative viability: 0.488
AZ628 + Tozasertib; first compound 0.08 µM
  relative viability: 0.203
AZ628 + Tozasertib; first compound 0.253 µM
  relative viability: 0.186
AZ628 + Tozasertib; first compound 0.8 µM
  relative viability: 0.2
AZ628 + Tozasertib; first compound 2.53 µM
  relative viability: 0.135
AZ628 + Tozasertib; first compound 8 µM
  relative viability: 0.122
[2]; first compound 0.08 µM
  relative viability: 0.564
[2]; first compound 0.8 µM
  relative viability: 0.468
[2]; first compound 2.53 µM
  relative viability: 0.61
[2]; first compound 8 µM
  relative viability: 0.555
Darinaparsin + Alpelisib; first compound 0.08 µM
  relative viability: 0.744
Darinaparsin + Alpelisib; first compound 0.8 µM
  relative viability: 0.729
Darinaparsin + Alpelisib; first compound 2.53 µM
  relative viability: 0.472
Darinaparsin + Alpelisib; first compound 8 µM
  relative viability: 0.832

## PC-14
[1]; first compound 0.08 µM
  relative viability: 0.661
[1]; first compound 0.8 µM
  relative viability: 0.53
[1]; first compound 2.53 µM
  relative viability: 0.365
[1]; first compound 8 µM
  relative viability: 0.462
AZ628 + Tozasertib; first compound 0.08 µM
  relative viability: 0.502
AZ628 + Tozasertib; first compound 0.253 µM
  relative viability: 0.526
AZ628 + Tozasertib; first compound 0.8 µM
  relative viability: 0.612
AZ628 + Tozasertib; first compound 2.53 µM
  relative viability: 0.564
AZ628 + Tozasertib; first compound 8 µM
  relative viability: 0.44
[2]; first compound 0.08 µM
  relative viability: 0.253
[2]; first compound 0.8 µM
  relative viability: 0.197
[2]; first compound 2.53 µM
  relative viability: 0.201
[2]; first compound 8 µM
  relative viability: 0.202
Darinaparsin + Alpelisib; first compound 0.08 µM
  relative viability: 0.858
Darinaparsin + Alpelisib; first compound 0.8 µM
  relative viability: 1.02
Darinaparsin + Alpelisib; first compound 2.53 µM
  relative viability: 0.742
Darinaparsin + Alpelisib; first compound 8 µM
  relative viability: 1.2

## LC-2-ad
[1]; first compound 0.08 µM
  relative viability: 0.554
[1]; first compound 0.8 µM
  relative viability: 0.523
[1]; first compound 2.53 µM
  relative viability: 0.383
[1]; first compound 8 µM
  relative viability: 0.602
AZ628 + Tozasertib; first compound 0.08 µM
  relative viability: 0.445
AZ628 + Tozasertib; first compound 0.253 µM
  relative viability: 0.427
AZ628 + Tozasertib; first compound 0.8 µM
  relative viability: 0.548
AZ628 + Tozasertib; first compound 2.53 µM
  relative viability: 0.392
AZ628 + Tozasertib; first compound 8 µM
  relative viability: 0.354
[2]; first compound 0.08 µM
  relative viability: 0.905
[2]; first compound 0.8 µM
  relative viability: 0.838
[2]; first compound 2.53 µM
  relative viability: 0.786
[2]; first compound 8 µM
  relative viability: 0.899
Darinaparsin + Alpelisib; first compound 0.08 µM
  relative viability: 0.954
Darinaparsin + Alpelisib; first compound 0.8 µM
  relative viability: 0.832
Darinaparsin + Alpelisib; first compound 2.53 µM
  relative viability: 0.856
Darinaparsin + Alpelisib; first compound 8 µM
  relative viability: 1.01

## 201T
[1]; first compound 0.08 µM
  relative viability: 0.345
[1]; first compound 0.8 µM
  relative viability: 0.342
[1]; first compound 2.53 µM
  relative viability: 0.363
[1]; first compound 8 µM
  relative viability: 0.368
AZ628 + Tozasertib; first compound 0.08 µM
  relative viability: 0.939
AZ628 + Tozasertib; first compound 0.253 µM
  relative viability: 0.861
AZ628 + Tozasertib; first compound 0.8 µM
  relative viability: 1.04
AZ628 + Tozasertib; first compound 2.53 µM
  relative viability: 0.899
AZ628 + Tozasertib; first compound 8 µM
  relative viability: 0.89
[2]; first compound 0.08 µM
  relative viability: 0.853
[2]; first compound 0.8 µM
  relative viability: 0.83
[2]; first compound 2.53 µM
  relative viability: 0.875
[2]; first compound 8 µM
  relative viability: 0.861
Darinaparsin + Alpelisib; first compound 0.08 µM
  relative viability: 1.12
Darinaparsin + Alpelisib; first compound 0.8 µM
  relative viability: 1.03
Darinaparsin + Alpelisib; first compound 2.53 µM
  relative viability: 0.997
Darinaparsin + Alpelisib; first compound 8 µM
  relative viability: 0.82

## NCI-H2023
[1]; first compound 0.08 µM
  relative viability: 0.393
[1]; first compound 0.8 µM
  relative viability: 0.333
[1]; first compound 2.53 µM
  relative viability: 0.344
[1]; first compound 8 µM
  relative viability: 0.431
AZ628 + Tozasertib; first compound 0.08 µM
  relative viability: 0.308
AZ628 + Tozasertib; first compound 0.253 µM
  relative viability: 0.284
AZ628 + Tozasertib; first compound 0.8 µM
  relative viability: 0.235
AZ628 + Tozasertib; first compound 2.53 µM
  relative viability: 0.212
AZ628 + Tozasertib; first compound 8 µM
  relative viability: 0.137
[2]; first compound 0.08 µM
  relative viability: 0.219
[2]; first compound 0.8 µM
  relative viability: 0.219
[2]; first compound 2.53 µM
  relative viability: 0.196
[2]; first compound 8 µM
  relative viability: 0.216
Darinaparsin + Alpelisib; first compound 0.08 µM
  relative viability: 0.658
Darinaparsin + Alpelisib; first compound 0.8 µM
  relative viability: 0.601
Darinaparsin + Alpelisib; first compound 2.53 µM
  relative viability: 0.536
Darinaparsin + Alpelisib; first compound 8 µM
  relative viability: 0.603

## HOP-62
[1]; first compound 0.08 µM
  relative viability: 0.541
[1]; first compound 0.8 µM
  relative viability: 0.411
[1]; first compound 2.53 µM
  relative viability: 0.385
[1]; first compound 8 µM
  relative viability: 0.593
AZ628 + Tozasertib; first compound 0.08 µM
  relative viability: 0.396
AZ628 + Tozasertib; first compound 0.253 µM
  relative viability: 0.38
AZ628 + Tozasertib; first compound 0.8 µM
  relative viability: 0.362
AZ628 + Tozasertib; first compound 2.53 µM
  relative viability: 0.358
AZ628 + Tozasertib; first compound 8 µM
  relative viability: 0.326
[2]; first compound 0.08 µM
  relative viability: 0.233
[2]; first compound 0.8 µM
  relative viability: 0.27
[2]; first compound 2.53 µM
  relative viability: 0.235
[2]; first compound 8 µM
  relative viability: 0.23
Darinaparsin + Alpelisib; first compound 0.08 µM
  relative viability: 1.24
Darinaparsin + Alpelisib; first compound 0.8 µM
  relative viability: 0.755
Darinaparsin + Alpelisib; first compound 2.53 µM
  relative viability: 0.786
Darinaparsin + Alpelisib; first compound 8 µM
  relative viability: 0.991
